Experimental data reported in PubChem BioAssay (NCI).
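Protocol summary: plate cells (96-well), add compound at 5 concentrations, incubate 48 h, interpolate endpoints linearly. Here, GI50 denotes the concentration required for 50% inhibition of growth. Definition used: TGI = concentration required for complete inhibition of growth.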

Experiments:
Test in all cases: growth of human tumour cells (NCI), 48 h
PC-3 prostate = tested on: PC-3 prostate
COLO 205 colon = tested on: COLO 205 colon
TK-10 renal = tested on: TK-10 renal
LOX IMVI melanoma = tested on: LOX IMVI melanoma
HCT-15 colon = tested on: HCT-15 colon
RPMI-8226 leukemia = tested on: RPMI-8226 leukemia
MCF7 breast = tested on: MCF7 breast
ACHN renal = tested on: ACHN renal
SF-539 CNS = tested on: SF-539 CNS
MDA-MB-231 breast = tested on: MDA-MB-231 breast
NCI-H23 lung = tested on: NCI-H23 lung
MDA-MB-435 = tested on: MDA-MB-435
SNB-19 CNS = tested on: SNB-19 CNS
K-562 leukemia = tested on: K-562 leukemia
CCRF-CEM leukemia = tested on: CCRF-CEM leukemia
NCI-H522 lung = tested on: NCI-H522 lung
A549 NSCLC = tested on: A549 NSCLC
UACC-257 melanoma = tested on: UACC-257 melanoma
HS 578T breast = tested on: HS 578T breast
OVCAR-5 ovarian = tested on: OVCAR-5 ovarian
SR leukemia = tested on: SR leukemia
MALME-3M melanoma = tested on: MALME-3M melanoma
SF-295 CNS = tested on: SF-295 CNS
NCI-H460 lung = tested on: NCI-H460 lung
OVCAR-4 ovarian = tested on: OVCAR-4 ovarian
IGROV1 ovarian = tested on: IGROV1 ovarian
U251 CNS = tested on: U251 CNS
UACC-62 melanoma = tested on: UACC-62 melanoma
NCI-H226 lung = tested on: NCI-H226 lung
T-47D breast = tested on: T-47D breast
SF-268 CNS = tested on: SF-268 CNS
SK-MEL-5 melanoma = tested on: SK-MEL-5 melanoma
UO-31 renal = tested on: UO-31 renal
HOP-62 NSCLC = tested on: HOP-62 NSCLC
MOLT-4 leukemia = tested on: MOLT-4 leukemia
CAKI-1 renal = tested on: CAKI-1 renal
SK-MEL-2 melanoma = tested on: SK-MEL-2 melanoma
HOP-92 NSCLC = tested on: HOP-92 NSCLC
RXF 393 renal = tested on: RXF 393 renal
EKVX NSCLC = tested on: EKVX NSCLC
NCI/ADR-RES ovarian = tested on: NCI/ADR-RES ovarian
HL-60(TB) leukemia = tested on: HL-60(TB) leukemia
A498 renal = tested on: A498 renal
DU-145 prostate = tested on: DU-145 prostate
SNB-75 CNS = tested on: SNB-75 CNS
HCC-2998 colon = tested on: HCC-2998 colon
786-0 renal = tested on: 786-0 renal
OVCAR-8 ovarian = tested on: OVCAR-8 ovarian
BT-549 breast = tested on: BT-549 breast
M14 melanoma = tested on: M14 melanoma
SW-620 colon = tested on: SW-620 colon
HT29 colon = tested on: HT29 colon
KM12 colon = tested on: KM12 colon
SK-MEL-28 melanoma = tested on: SK-MEL-28 melanoma
SN12C renal = tested on: SN12C renal
HCT-116 colon = tested on: HCT-116 colon
SK-OV-3 ovarian = tested on: SK-OV-3 ovarian

**Q.** Which results are given for Oc1ccc(CSc2nnc(-c3ccccc3)n2-c2ccccc2)c2cccnc12?
**A.** GI50 (PC-3 prostate): 440 nM; TGI (PC-3 prostate): > 47700 nM; GI50 (COLO 205 colon): 4790 nM; TGI (COLO 205 colon): > 100000 nM; GI50 (TK-10 renal): 514 nM; TGI (TK-10 renal): 4670 nM; GI50 (LOX IMVI melanoma): 485 nM; TGI (LOX IMVI melanoma): 2820 nM; GI50 (HCT-15 colon): 348 nM; TGI (HCT-15 colon): > 100000 nM; GI50 (RPMI-8226 leukemia): 448 nM; TGI (RPMI-8226 leukemia): > 100000 nM; GI50 (MCF7 breast): 348 nM; TGI (MCF7 breast): > 70200 nM; GI50 (ACHN renal): 364 nM; TGI (ACHN renal): 1290 nM; GI50 (SF-539 CNS): 427 nM; TGI (SF-539 CNS): 3270 nM; GI50 (MDA-MB-231 breast): 620 nM; TGI (MDA-MB-231 breast): 11400 nM; GI50 (NCI-H23 lung): 541 nM; TGI (NCI-H23 lung): 11000 nM; GI50 (MDA-MB-435): 439 nM; TGI (MDA-MB-435): > 100000 nM; GI50 (SNB-19 CNS): 395 nM; TGI (SNB-19 CNS): 14200 nM; GI50 (K-562 leukemia): 403 nM; TGI (K-562 leukemia): > 39700 nM; GI50 (CCRF-CEM leukemia): 396 nM; TGI (CCRF-CEM leukemia): > 43400 nM; GI50 (NCI-H522 lung): 402 nM; TGI (NCI-H522 lung): 7190 nM; GI50 (A549 NSCLC): 644 nM; TGI (A549 NSCLC): > 33300 nM; GI50 (UACC-257 melanoma): 811 nM; TGI (UACC-257 melanoma): 6650 nM; GI50 (HS 578T breast): 433 nM; TGI (HS 578T breast): 12100 nM; GI50 (OVCAR-5 ovarian): 2880 nM; TGI (OVCAR-5 ovarian): > 100000 nM; GI50 (SR leukemia): 404 nM; TGI (SR leukemia): > 100000 nM; GI50 (MALME-3M melanoma): 1150 nM; TGI (MALME-3M melanoma): 6190 nM; GI50 (SF-295 CNS): 406 nM; TGI (SF-295 CNS): 4280 nM; GI50 (NCI-H460 lung): 351 nM; TGI (NCI-H460 lung): 3470 nM; GI50 (OVCAR-4 ovarian): 706 nM; TGI (OVCAR-4 ovarian): 13000 nM; GI50 (IGROV1 ovarian): 557 nM; TGI (IGROV1 ovarian): 13000 nM; GI50 (U251 CNS): 298 nM; TGI (U251 CNS): 9460 nM; GI50 (UACC-62 melanoma): 713 nM; TGI (UACC-62 melanoma): 3630 nM; GI50 (NCI-H226 lung): 1900 nM; TGI (NCI-H226 lung): > 79200 nM; GI50 (T-47D breast): 625 nM; TGI (T-47D breast): 4320 nM; GI50 (SF-268 CNS): 519 nM; TGI (SF-268 CNS): 21100 nM; GI50 (SK-MEL-5 melanoma): 522 nM; TGI (SK-MEL-5 melanoma): 3220 nM; GI50 (UO-31 renal): 315 nM; TGI (UO-31 renal): 1560 nM; GI50 (HOP-62 NSCLC): 449 nM; TGI (HOP-62 NSCLC): 7910 nM; GI50 (MOLT-4 leukemia): 480 nM; TGI (MOLT-4 leukemia): > 100000 nM; GI50 (CAKI-1 renal): 559 nM; TGI (CAKI-1 renal): 3440 nM; GI50 (SK-MEL-2 melanoma): 621 nM; TGI (SK-MEL-2 melanoma): 6090 nM; GI50 (HOP-92 NSCLC): 227 nM; TGI (HOP-92 NSCLC): 787 nM; GI50 (RXF 393 renal): 887 nM; TGI (RXF 393 renal): 6120 nM; GI50 (EKVX NSCLC): 771 nM; TGI (EKVX NSCLC): 6400 nM; GI50 (NCI/ADR-RES ovarian): 285 nM; TGI (NCI/ADR-RES ovarian): 2340 nM; GI50 (HL-60(TB) leukemia): 376 nM; TGI (HL-60(TB) leukemia): 6910 nM; GI50 (A498 renal): 1520 nM; TGI (A498 renal): 11700 nM; GI50 (DU-145 prostate): 605 nM; TGI (DU-145 prostate): 22200 nM; GI50 (SNB-75 CNS): 673 nM; TGI (SNB-75 CNS): 5150 nM; GI50 (HCC-2998 colon): 728 nM; TGI (HCC-2998 colon): > 100000 nM; GI50 (786-0 renal): 923 nM; TGI (786-0 renal): 5090 nM; GI50 (OVCAR-8 ovarian): 377 nM; TGI (OVCAR-8 ovarian): > 22800 nM; GI50 (BT-549 breast): 590 nM; TGI (BT-549 breast): > 26000 nM; GI50 (M14 melanoma): 405 nM; TGI (M14 melanoma): 2440 nM; GI50 (SW-620 colon): 443 nM; TGI (SW-620 colon): > 100000 nM; GI50 (HT29 colon): 3960 nM; TGI (HT29 colon): > 100000 nM; GI50 (KM12 colon): 534 nM; TGI (KM12 colon): > 100000 nM; GI50 (SK-MEL-28 melanoma): 614 nM; TGI (SK-MEL-28 melanoma): 55200 nM; GI50 (SN12C renal): 416 nM; TGI (SN12C renal): 25400 nM; GI50 (HCT-116 colon): 362 nM; TGI (HCT-116 colon): 4870 nM; GI50 (SK-OV-3 ovarian): 481 nM; TGI (SK-OV-3 ovarian): 6810 nM
